The values below come from patent publication US8778939B2, “Compounds” (Glaxo Group Limited, priority 2009, dated 2014).

The target in assay [1] is T1, 6His-Tev-LRRK2 (1326-2527) (Homo sapiens, UniProt Q5S007).
T1 construct: A LRRK2 cDNA encoding residues 1326-2527 was received from Dundee University; made in house; host or cells: Spodoptera frugiperda (Sf9) insect cells, baculovirus
T1 sequence (Q5S007 1326-2527): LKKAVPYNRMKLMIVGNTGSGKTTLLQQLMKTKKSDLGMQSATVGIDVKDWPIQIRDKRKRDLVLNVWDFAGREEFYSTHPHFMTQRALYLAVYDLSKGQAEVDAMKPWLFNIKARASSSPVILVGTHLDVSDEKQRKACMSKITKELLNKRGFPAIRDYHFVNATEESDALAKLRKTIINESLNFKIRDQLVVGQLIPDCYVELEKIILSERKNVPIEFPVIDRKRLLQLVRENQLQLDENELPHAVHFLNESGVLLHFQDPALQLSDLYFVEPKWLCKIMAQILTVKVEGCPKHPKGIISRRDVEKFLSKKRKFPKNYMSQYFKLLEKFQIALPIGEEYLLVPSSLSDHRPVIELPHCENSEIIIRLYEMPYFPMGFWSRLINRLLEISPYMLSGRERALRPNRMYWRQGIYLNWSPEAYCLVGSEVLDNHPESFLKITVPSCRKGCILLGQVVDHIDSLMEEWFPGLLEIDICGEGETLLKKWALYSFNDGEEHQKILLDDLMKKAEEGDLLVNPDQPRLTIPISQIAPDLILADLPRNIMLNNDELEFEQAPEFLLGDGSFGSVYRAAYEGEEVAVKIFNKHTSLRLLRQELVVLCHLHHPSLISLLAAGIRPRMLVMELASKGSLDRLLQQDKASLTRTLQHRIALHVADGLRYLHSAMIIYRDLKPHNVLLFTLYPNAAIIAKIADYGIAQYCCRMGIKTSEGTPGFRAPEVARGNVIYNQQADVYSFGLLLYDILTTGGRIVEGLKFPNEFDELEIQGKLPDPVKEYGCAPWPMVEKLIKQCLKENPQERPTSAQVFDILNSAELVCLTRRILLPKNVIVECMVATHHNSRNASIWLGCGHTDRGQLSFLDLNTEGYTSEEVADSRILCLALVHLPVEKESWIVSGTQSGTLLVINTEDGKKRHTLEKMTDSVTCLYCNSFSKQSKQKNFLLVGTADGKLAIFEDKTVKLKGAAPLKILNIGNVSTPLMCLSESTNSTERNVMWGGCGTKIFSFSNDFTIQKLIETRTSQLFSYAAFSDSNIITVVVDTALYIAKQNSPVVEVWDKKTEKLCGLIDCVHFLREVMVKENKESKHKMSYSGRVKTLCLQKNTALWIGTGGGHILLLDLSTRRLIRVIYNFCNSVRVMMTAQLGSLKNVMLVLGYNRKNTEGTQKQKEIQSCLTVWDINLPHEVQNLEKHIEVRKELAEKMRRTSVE
Put plainly: LRRK2 AlphaScreen desensitised protein substrate assay. Format: biochemical. The procedure:
(§1) a) 100 nl of a 1:4 serial dilution of test compound with a top final assay concentration of 30 μM is added to certain wells in a low volume 384 well black plate. 100 nl of DMSO is used in certain wells as controls.
b) 3 μl enzyme solution (80 nM purified recombinant 6His-Tev-LRRK2 (1326-2527) in assay buffer: 50 mM Hepes (pH 7.2), 10 mM MgCl2, 150 mM NaCl, 5% glycerol, 0.0025% triton X-100 and 1 mM DTT) is added to certain wells.
Plates are then incubated for a further 1-2 hours at room temperature (incubation time varies depending upon rate and linearity of reaction with differing enzyme batches).
d) 6 μl detection solution (1:250 dilution of AlphaLisa Protein A Acceptor beads (PerkinElmer), 1:64 dilution of AlphaLisa Gluthathione Donor beads (PerkinElmer) and 1:600 dilution (dilution determined on a batch to batch basis) of Phospho-Ezrin (Thr567)/Radixin (Thr564)/Moesin (Thr558) Polyclonal Antibody (New England Biolabs) in a buffer: 50 mM Hepes (pH 7.5), 250 mM NaCl, 60 mM EDTA, 1% PEG and 0.01% Brij 35) is added to each well. Plates are then incubated for a further 2 hours at room temperature in the dark before reading on an EnVision™ plate reader with AlphaScreen HTS turbo option module and AlphaScreen settings. Data is analysed using ActivityBase software (IDBS).
LRRK2 AlphaScreen Desensitised Protein Substrate Assay
This is conducted as described for the LRRK2 alphascreen protein substrate assay, with the following differences: • 1. The concentration of ATP in the substrate solution was 2 mM. • 2. The plates were incubated for 20 minutes at room temperature following addition of the substrate solution. Pharmacological Data

Assay [2] concerns the target T1, 6His-Tev-LRRK2 (1326-2527). Kind of assay: LRRK2 peptide substrate assay. The format is biochemical. The following applies: Biotin-LRRKtide peptide substrate, ATP at Km. The procedure: Compounds of formula (I) may be tested for in vitro kinase activity in accordance with the following assays, using the non natural, in vitro, substrates moesin and the Longer Biotin-LRRKtide. Moesin and a shorter version of the peptide were identified as substrates in Jaleel et al, (2007, Biochem J, 405: 307-317).
LRRK2 Peptide Substrate Assay
as §1
b) 3 μl enzyme solution (80 nM purified recombinant 6His-Tev-LRRK2 (1326-2527) in assay buffer: 50 mM Hepes (pH 7.2), 10 mM MgCl2, 150 mM NaCl, 5% glycerol, 0.0025% triton X-100 and 1 mM DTT) is added to certain wells. […] Plates are then incubated for a further 1-2 hours at room temperature (incubation time varies depending upon rate and linearity of reaction with differing enzyme batches). d) 6 μl detection solution (50 nM Streptavidin SureLight® APC (PerkinElmer), 4 nM Eu-W1024 labelled anti-rabbit IgG antibody (PerkinElmer), 1:500 dilution (dilution determined on a batch to batch basis) of Phospho-Ezrin (Thr567)/Radixin (Thr564)/Moesin (Thr558) Polyclonal Antibody (New England Biolabs) and 60 mM EDTA in buffer: 40 mM Hepes (pH 7.2), 150 mM NaCl, 0.03% BSA) is added to each well. Plates are then incubated for a further 2 hours at room temperature before reading on a suitable plate reader (Excitation 330 nm, emission 620 nm (Eu) and 665 nm (APC)). Data is analysed using ActivityBase software (IDBS). LRRK2 AlphaScreen Protein Substrate Assay

The mark [3] stands for this setting: excess of ATP present (2 mM ATP), read-out: pIC50 in the LRRK2 alphascreen desensitised protein substrate assay (converted).
Setting [4] is: mean pIC50, GST-PS-Moesin (400-577) substrate, 2 mM ATP (excess of ATP present), read-out: LRRK2 alphascreen desensitised protein substrate assay (pIC50) (converted).
The mark [5] stands for this setting: read-out: pIC50 in the LRRK2 peptide substrate assay (converted).
Where [6] appears, read: mean pIC50, read-out: LRRK2 peptide substrate assay (pIC50) (converted).

`Cn1cc(-c2ccc(OCc3ccc(F)cc3)c(C(=O)Nc3ccnnc3)c2)cn1` [Example 94, 2-{[(4-Fluorophenyl)methyl]oxy}-5-(1-methyl-1H-pyrazol-4-yl)-N-4-pyridazinylbenzamide]: the IC50 is no more than 20000 nM in assay [1] (setting [3]), 100 nM in assay [1] (setting [4]), no more than 100 nM in assay [2] (setting [5]) and 12.6 nM in assay [2] (setting [6]).

For the molecule `O=C(Nc1ccnnc1)c1cc(CN2CCOCC2)ccc1OCc1ccc(F)cc1` [Example 119, 2-{[(4-Fluorophenyl)methyl]oxy}-5-(4-morpholinylmethyl)-N-4-pyridazinyl benzamide], the IC50 in assay [1] (setting [3]) is no more than 20000 nM; in assay [2] (setting [5]), no more than 100 nM.

As for `Cn1cc(-c2ccc(OCc3ccc(F)c(F)c3)c(C(=O)Nc3cccnc3)c2)cn1` [Example 110, 2-{[(3,4-Difluorophenyl)methyl]oxy)-5-(1-methyl-1H-pyrazol-4-yl)-N-3-pyridinylbenzamide], the IC50 in assay [1] (setting [3]) is no more than 20000 nM; in assay [2] (setting [5]) it was no more than 100 nM.

Take `O=C(Nc1cccnc1)c1cc(-c2ccncc2)ccc1OCc1ccc(F)cc1` [Example 90, 2-{[(4-Fluorophenyl)methyl]oxy}-N-3-pyridinyl-5-(4-pyridinyl)benzamide]: the IC50 is no more than 20000 nM in assay [1] (setting [3]) and no more than 10 nM in assay [2] (setting [5]).

As for `CC(C)(O)c1ccc(OCc2ccccc2)c(C(=O)Nc2cccnc2)c1` [Example 76, 5-(1-Hydroxy-1-methylethyl)-2-[(phenylmethyl)oxy]-N-3-pyridinylbenzamide], the IC50 in assay [1] (setting [3]) was no more than 20000 nM; in assay [2] (setting [5]), no more than 10 nM.

Take `O=C(Nc1cccnc1)c1cc(Br)ccc1OCc1ccccc1F` [Example 58, 5-Bromo-2-{[(2-fluorophenyl)methyl]oxy}-N-3-pyridinylbenzamide]: the IC50 in assay [1] (setting [3]) is no more than 20000 nM; in assay [2] (setting [5]), no more than 10 nM.

In the case of `O=C(Nc1cccnc1)c1cc(CN2CCOCC2)ccc1OCc1ccccc1` [Example 69, 5-(4-Morpholinylmethyl)-2-[(phenylmethyl)oxy]-N-3-pyridinylbenzamide], the IC50 was no more than 20000 nM in assay [1] (setting [3]), 501 nM in assay [1] (setting [4]), no more than 100 nM in assay [2] (setting [5]) and 15.8 nM in assay [2] (setting [6]).

With `Nc1cc(-c2ccc(OCc3ccccc3)c(C(=O)Nc3cccnc3)c2)ccn1` [Example 122, 5-(2-Amino-4-pyridinyl)-2-[(phenylmethyl)oxy]-N-3-pyridinylbenzamide], the IC50 is no more than 20000 nM in assay [1] (setting [3]) and no more than 100 nM in assay [2] (setting [5]).

For the molecule `O=C(Nc1cccnc1)c1cc(C(=O)N2CCOCC2)ccc1OCc1ccc(F)cc1` [Example 127, 2-{[(4-Fluorophenyl)methyl]oxy}-5-(4-morpholinylcarbonyl)-N-3-pyridinylbenzamide], the IC50 in assay [1] (setting [3]) is no more than 20000 nM; in assay [1] (setting [4]), 10000 nM; in assay [2] (setting [5]), no more than 100 nM; in assay [2] (setting [6]) it was 63.1 nM.

As to `O=C(Nc1cccnc1)c1cc(-c2cccnc2)ccc1OCc1ccccc1` [Example 101, 2-[(Phenylmethyl)oxy]-N,5-di-3-pyridinylbenzamide], the IC50 in assay [1] (setting [3]) is no more than 20000 nM; in assay [2] (setting [5]), no more than 10 nM.

Consider `O=C(Nc1cnoc1)c1cc(-c2ccncc2)ccc1OCc1ccccc1` [Example 63, N-4-Isoxazolyl-2-[(phenylmethyl)oxy]-5-(4-pyridinyl)benzamide], for which the IC50 in assay [1] (setting [3]) is no more than 20000 nM; in assay [2] (setting [5]) it was no more than 100 nM.

Turning to `Cc1nocc1NC(=O)c1cc(-c2cnn(CCN3CCOCC3)c2)ccc1OCc1ccc(F)cc1` [Example 129, 2-([(4-Fluorophenyl)methyl]oxy)-N-(3-methyl-4-isoxazolyl)-5-{1-[2-(4-morpholinyl)ethyl]-1H-pyrazol-4-yl}benzamide], the IC50 is greater than 25100 nM in assay [1] (setting [3]), greater than 25100 nM in assay [1] (setting [4]), no more than 100 nM in assay [2] (setting [5]) and 12.6 nM in assay [2] (setting [6]).

As to `O=C(Nc1cccnc1)c1cc(OC[C@@H]2CCCN2)ccc1OCc1ccccc1` [Example 46, 2-[(Phenylmethyl)oxy]-N-3-pyridinyl-5-{[(2S)-2-pyrrolidinylmethyl]oxy}benzamide], the IC50 in assay [1] (setting [3]) is no more than 20000 nM; in assay [2] (setting [5]), no more than 100 nM.

Consider `O=C(O)CCc1ccc(OCc2ccccc2)c(C(=O)Nc2cccnc2)c1` [Example 88, 3-{4-[(phenylmethyl)oxy]-3-[(3-pyridinylamino)carbonyl]phenyl}propanoic acid], for which the IC50 in assay [1] (setting [3]) was greater than 25100 nM; in assay [2] (setting [5]), no more than 100 nM.

As to `O=C(Nc1ccnnc1)c1cc(-c2ccncc2)ccc1OCc1ccc(F)cc1` [Example 89, 2-{[(4-Fluorophenyl)methyl]oxy}-N-4-pyridazinyl-5-(4-pyridinyl)benzamide], the IC50 in assay [1] (setting [3]) is no more than 20000 nM; in assay [2] (setting [5]) it was no more than 10 nM.

Turning to `CC(O)c1ccc(OCc2ccccc2)c(C(=O)Nc2cccnc2)c1` (centres unmarked) [Example 75, 5-(1-Hydroxyethyl)-2-[(phenylmethyl)oxy]-N-3-pyridinylbenzamide], the IC50 is no more than 20000 nM in assay [1] (setting [3]) and no more than 10 nM in assay [2] (setting [5]).

On to `O=C(Nc1cccnc1)c1cc(-c2cn[nH]c2)ccc1OCc1ccccc1` [Example 99, 2-[(Phenylmethyl)oxy]-5-(1H-pyrazol-4-yl)-N-3-pyridinylbenzamide], for which the IC50 in assay [1] (setting [3]) is no more than 20000 nM; in assay [2] (setting [5]), no more than 10 nM.

With `Cn1cc(-c2ccc(OCc3ccc(F)cc3F)c(C(=O)Nc3cccnc3)c2)cn1` [Example 116, 2-{[(2,4-Difluorophenyl)methyl]oxy}-5-(1-methyl-1H-pyrazol-4-yl)-N-3-pyridinylbenzamide], the values for the IC50 in assay [1] (setting [3]) and in assay [2] (setting [5]) were no more than 20000 nM and no more than 10 nM, respectively.
